The target of the experiment is T1, APOL1 (Homo sapiens, UniProt O14791).
T1 sequence (O14791 1-398 S342G/I384M): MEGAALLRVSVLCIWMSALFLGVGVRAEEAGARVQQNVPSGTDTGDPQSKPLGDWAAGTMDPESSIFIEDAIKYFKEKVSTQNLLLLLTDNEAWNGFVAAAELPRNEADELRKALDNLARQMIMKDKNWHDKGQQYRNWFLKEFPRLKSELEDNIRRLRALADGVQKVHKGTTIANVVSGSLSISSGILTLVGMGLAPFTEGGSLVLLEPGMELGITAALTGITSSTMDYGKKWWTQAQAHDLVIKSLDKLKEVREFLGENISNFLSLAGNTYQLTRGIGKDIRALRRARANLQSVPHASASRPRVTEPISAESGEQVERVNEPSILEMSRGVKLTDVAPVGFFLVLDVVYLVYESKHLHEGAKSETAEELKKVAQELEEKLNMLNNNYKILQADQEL
The experiment in a line: MultiTox-Fluor Multiplex Cytotoxicity Assay in tet-inducible APOL1 T-REx-HEK293 cells (cell rescue, ratio of dead to live cells). In kind it is cell-based. To be noted: tet-inducible transgenic APOL1 T-REx-HEK293 cell lines, 50 ng/mL tet, 24 hours; read-out: IP50 (i.e., IC50 for cell proliferation). The procedure, abridged:
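T-REx-HEK293 cells with tet-inducible APOL1 were treated with compound (10 μM top, 10-point 3-fold dilution, duplicate) plus 50 ng/mL tetracycline for 24 h at 37° C, in DMEM with 2% tet-free FBS. MultiTox-Fluor protease signals gave a dead/live ratio, normalized to no tet (100% viability) and tet alone (0%).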

A value given as a limit tells only on which side of the number the result lay.

With `CCc1cc2c(s1)CCO[C@@]21CCN(CC2CN(C(=O)CC3CCS(=O)(=O)CC3)C2)[C@@H](C)C1` [Compound 444], the IC50 was less than 100 nM. To `CCc1cc2c(s1)CCO[C@@]21CCN(CC2CN(C(=O)CN3CCS(=O)(=O)CC3)C2)[C@@H](C)C1` [Compound 445] belongs less than 100 nM. As for `CCc1cc2c(s1)CCO[C@@]21CCN(CC2CN(C(=O)C3CCS(=O)(=O)N3)C2)[C@@H](C)C1` (some centres unmarked) [Compound 446], the figure is less than 100 nM; as for `CCc1cc2c(s1)CCO[C@@]21CCN(CC2CN(C(=O)CCO)C2)[C@@H](C)C1` [Compound 447], 100 to 500 nM; as for `CCc1cc2c(s1)CCO[C@@]21CCN(CC2CN(C(=O)C3CCCCC3)C2)[C@@H](C)C1` [Compound 448], 100 to 500 nM.

As for `CCc1cc2c(s1)CCO[C@@]21CCN(CC2CN(C(=O)CS(C)(=O)=O)C2)[C@@H](C)C1` [Compound 449], the IC50 lay within 100 to 500 nM. To `CCc1cc2c(s1)CCO[C@@]21CCN(CC2CN(C(=O)CC3CS(=O)(=O)C3)C2)[C@@H](C)C1` [Compound 450] belongs 100 to 500 nM; to `CCc1cc2c(s1)CCO[C@@]21CCN(CC2CN(C(=O)C3C4COCC43)C2)[C@@H](C)C1` (some centres unmarked) [Compound 451], 100 to 500 nM.

In the case of `CCc1cc2c(s1)CCO[C@@]21CCN(CC2CN(C(=O)CO)C2)[C@@H](C)C1` [Compound 452], the IC50 fell in the range of 100 to 500 nM. `CCc1cc2c(s1)CCO[C@@]21CCN(CC2CN(C(=O)CCS(N)(=O)=O)C2)[C@@H](C)C1` [Compound 453]: the IC50 is 100 to 500 nM. As for `CCc1cc2c(s1)CCO[C@@]21CCN(CC2CN(C(=O)CCS(C)(=O)=O)C2)[C@@H](C)C1` [Compound 454], the figure is 100 to 500 nM. As for `CCc1cc2c(s1)CCO[C@@]21CCN(CC2CN(C(=O)Cc3cnn(C)c3)C2)[C@@H](C)C1` [Compound 455], the figure is 100 to 500 nM; as for `CCc1cc2c(s1)CCO[C@@]21CCN(CC2CN(C(=O)CS(=O)(=O)c3ccccc3)C2)[C@@H](C)C1` [Compound 456], 100 to 500 nM. As to `CCc1cc2c(s1)CCO[C@@]21CCN(CC2CN(C(=O)C(C)(C)C)C2)[C@@H](C)C1` [Compound 457], the IC50 was 500 to 1000 nM. As for `CCc1cc2c(s1)CCO[C@@]21CCN(CC2CN(C(=O)c3cnc(C#N)nc3)C2)[C@@H](C)C1` [Compound 458], the figure is 100 to 500 nM. As for `CCc1cc2c(s1)CCO[C@@]21CCN(CC2CN(C(=O)CS(=O)(=O)CC)C2)[C@@H](C)C1` [Compound 459], the figure is less than 100 nM. Regarding `CCc1cc2c(s1)CCO[C@@]21CCN(CC2CN(C(=O)c3c[nH]c(C(F)(F)F)n3)C2)[C@@H](C)C1` [Compound 460], the IC50 is less than 100 nM. To `CCc1cc2c(s1)CCO[C@@]21CCN(CC2CN(C(=O)c3cc(C(F)F)[nH]n3)C2)[C@@H](C)C1` [Compound 461] belongs less than 100 nM. As for `CCc1cc2c(s1)CCO[C@@]21CCN(CC2CN(C(=O)c3cc(C(F)(F)F)n[nH]3)C2)[C@@H](C)C1` [Compound 462], the figure is less than 100 nM.

In the case of `CCc1cc2c(s1)CCO[C@@]21CCN(CC2CN(C(=O)c3ccc(=O)oc3)C2)[C@@H](C)C1` [Compound 463], the IC50 was in the range of 100 to 500 nM. Turning to `CCc1cc2c(s1)CCO[C@@]21CCN(CC2CN(C(=O)Cn3cnnn3)C2)[C@@H](C)C1` [Compound 464], the IC50 was less than 100 nM.

On to `CCc1cc2c(s1)CCO[C@@]21CCN(CC2CN(C(=O)CC3CCS(=O)(=O)C3)C2)[C@@H](C)C1` (some centres unmarked) [Compound 465], for which the IC50 was less than 100 nM. For the compound `CCc1cc2c(s1)CCO[C@@]21CCN(CC2CN(C(=O)c3ncc(OC)o3)C2)[C@@H](C)C1` [Compound 466], the IC50 is less than 100 nM. As for `CCc1cc2c(s1)CCO[C@@]21CCN(CC2CN(C(=O)[C@@H]3CSC(=O)N3)C2)[C@@H](C)C1` [Compound 467], the figure is less than 100 nM; as for `CCc1cc2c(s1)CCO[C@@]21CCN(CC2CN(C(=O)c3ncc[nH]3)C2)[C@@H](C)C1` [Compound 468], less than 100 nM; as for `CCc1cc2c(s1)CCO[C@@]21CCN(CC2CN(C(=O)c3cc[nH]n3)C2)[C@@H](C)C1` [Compound 469], less than 100 nM. `CCc1cc2c(s1)CCO[C@@]21CCN(CC2CN(C(=O)c3ncc(C)[nH]3)C2)[C@@H](C)C1` [Compound 470]: the IC50 was less than 100 nM.

For the compound `CCc1cc2c(s1)CCO[C@@]21CCN(CC2CN(C(=O)CCCc3c[nH]nn3)C2)[C@@H](C)C1` [Compound 471], the IC50 was less than 100 nM. As for `CCc1cc2c(s1)CCO[C@@]21CCN(CC2CN(C(=O)C3CC(=O)NC3=O)C2)[C@@H](C)C1` (some centres unmarked) [Compound 472], the figure is less than 100 nM.

As for `CCc1cc2c(s1)CCO[C@@]21CCN(CC2CN(C(=O)[C@@H](C)NS(C)(=O)=O)C2)[C@@H](C)C1` [Compound 473], the IC50 was 100 to 500 nM. As for `CCc1cc2c(s1)CCO[C@@]21CCN(CC2CN(C(=O)c3ncon3)C2)[C@@H](C)C1` [Compound 474], the figure is less than 100 nM; as for `CCc1cc2c(s1)CCO[C@@]21CCN(CC2CN(C(=O)c3ccn(CO)n3)C2)[C@@H](C)C1` [Compound 475], less than 100 nM; as for `CCc1cc2c(s1)CCO[C@@]21CCN(CC2CN(C(=O)c3nnc(C)o3)C2)[C@@H](C)C1` [Compound 476], less than 100 nM.

Regarding `CCc1cc2c(s1)CCO[C@@]21CCN(CC2CN(C(=O)CN3CCOC3=O)C2)[C@@H](C)C1` [Compound 477], the IC50 was less than 100 nM. As for `CCc1cc2c(s1)CCO[C@@]21CCN(CC2CN(C(=O)C3CNC(=O)O3)C2)[C@@H](C)C1` (some centres unmarked) [Compound 478], the figure is 100 to 500 nM; as for `CCc1cc2c(s1)CCO[C@@]21CCN(CC2CN(C(=O)c3cc(CO)n[nH]3)C2)[C@@H](C)C1` [Compound 479], less than 100 nM; as for `CCc1cc2c(s1)CCO[C@@]21CCN(CC2CN(C(=O)CNC(C)=O)C2)[C@@H](C)C1` [Compound 480], 100 to 500 nM. To `CCc1cc2c(s1)CCO[C@@]21CCN(CC2CN(C(=O)[C@H](C)NC(C)=O)C2)[C@@H](C)C1` [Compound 481] belongs 100 to 500 nM; to `CCc1cc2c(s1)CCO[C@@]21CCN(CC2CN(C(=O)C(=O)c3cnc[nH]3)C2)[C@@H](C)C1` [Compound 482], less than 100 nM. Regarding `CCc1cc2c(s1)CCO[C@@]21CCN(CC2CN(C(=O)Cn3cncn3)C2)[C@@H](C)C1` [Compound 483], the IC50 was in the range of 100 to 500 nM. As for `CCc1cc2c(s1)CCO[C@@]21CCN(CC2CN(C(=O)C3CCNC3=O)C2)[C@@H](C)C1` (some centres unmarked) [Compound 484], the IC50 was less than 100 nM. As for `CCc1cc2c(s1)CCO[C@@]21CCN(CC2CN(C(=O)c3ccc(=O)[nH]c3)C2)[C@@H](C)C1` [Compound 485], the figure is less than 100 nM; as for `CCc1cc2c(s1)CCO[C@@]21CCN(CC2CN(C(=O)c3n[nH]c(=O)[nH]3)C2)[C@@H](C)C1` [Compound 486], 100 to 500 nM. To `CCc1cc2c(s1)CCO[C@@]21CCN(CC2CN(C(=O)[C@H]3CCC(=O)N3)C2)[C@@H](C)C1` [Compound 487] belongs 100 to 500 nM; to `CCc1cc2c(s1)CCO[C@@]21CCN(CC2CN(C(=O)Cc3sc(O)nc3O)C2)[C@@H](C)C1` [Compound 488], less than 100 nM.

For `CCc1cc2c(s1)CCO[C@@]21CCN(CC2CN(C(=O)N(C)C)C2)[C@@H](C)C1` [Compound 490], the IC50 fell in the range of 500 to 1000 nM. As for `CCc1cc2c(s1)CCO[C@@]21CCN(CC2CN(S(=O)(=O)CC)C2)[C@@H](C)C1` [Compound 491, (2′S,4R)-2-ethyl-1′-[(1-ethylsulfonylazetidin-3-yl)methyl]-2′-methyl-spiro[6,7-dihydrothieno[3,2-c]pyran-4,4′-piperidine]], the figure is 100 to 500 nM; as for `CCc1cc2c(s1)CCO[C@@]21CCN(CC2CN(S(=O)(=O)CCO)C2)[C@@H](C)C1` [Compound 492], 100 to 500 nM; as for `CCc1cc2c(s1)CCO[C@@]21CCN(CC2CN(S(=O)(=O)c3ccccc3)C2)[C@@H](C)C1` [Compound 493], 500 to 1000 nM. As for `CCc1cc2c(s1)CCO[C@@]21CCN(CC2CN(S(=O)(=O)C3CCOCC3)C2)[C@@H](C)C1` [Compound 494], the figure is 100 to 500 nM; as for `CCc1cc2c(s1)CCO[C@@]21CCN(CC2CN(S(=O)(=O)c3cnn4c3OCCC4)C2)[C@@H](C)C1` [Compound 495], 500 to 1000 nM. As for `CCc1cc2c(s1)CCO[C@@]21CCN(CC2CN(S(=O)(=O)c3c[nH]cn3)C2)[C@@H](C)C1` [Compound 496], the figure is 500 to 1000 nM; as for `CCC1=CC2=C(CCO[C@@]23CCN(Cc2cn(CCS(C)(=O)=O)nn2)[C@@H](C)C3)S1(=O)=O` [Compound 497, (2′S,4R)-2-ethyl-2′-methyl-1′-[[1-(2-methylsulfonylethyl)triazol-4-yl]methyl]spiro[6,7-dihydrothieno[3,2-c]pyran-4,4′-piperidine]1,1-dioxide], 100 to 500 nM. As to `CCc1cc2c(s1)CCOC21CCN(Cc2cnn(C)c2)C(C)(C)C1` (centres unmarked) [Compound 498, 2-ethyl-2′,2′-dimethyl-1′-[(1-methylpyrazol-4-yl)methyl]spiro[6,7-dihydrothieno[3,2-c]pyran-4,4′-piperidine]], the IC50 lay within 500 to 1000 nM. To `Cc1cc2c(s1)CCO[C@@]21CCN(CC(O)C(N)=O)[C@@H](C)C1` (some centres unmarked) [Compound 501] belongs 100 to 500 nM; to `Cc1cc2c(s1)CCO[C@@]21CCN(CC(O)C(N)=O)[C@@H](C)C1` (some centres unmarked) [Compound 502], 100 to 500 nM.
